The nature of data set [1]: Volume of distribution at steady state in dog at 0.90 mg/kg, iv and 2.7 mg/kg, po. In kind it is ADME, organism-based, Canis lupus familiaris. The conditions noted are these: in vivo, 0.9 mg/kg, read-out: Vdss.
The nature of data set [2]: Oral bioavailability in dog at 2.7 mg/kg, po. In kind it is ADME, organism-based, Canis lupus familiaris. The note with it: in vivo.
The nature of data set [3]: AUC in dog at 2.7 mg/kg, po. On the set-up: dose 2.7 mg/kg, route oral. The note with it: plasma. In kind it is ADME, organism-based, Canis lupus familiaris.
Data set [4] in a line: Clearance in dog at 0.90 mg/kg, iv and 2.7 mg/kg, po. In kind it is ADME, organism-based, Canis lupus familiaris. The conditions noted are these: in vivo, 0.9 mg/kg.
For data set [5], the system named is Macaca fascicularis. As to the kind of experiment: Half life in monkey at 0.93 mg/kg, iv. The conditions noted are these: cynomolgus monkey, in vivo.
Data set [6] in a line: Half life in dog at 0.90 mg/kg, iv. In kind it is ADME, organism-based, Canis lupus familiaris. On the set-up: dose 0.9 mg/kg, route intravenous. The conditions noted are these: in vivo, 0.9 mg/kg.
Data set [7] in a line: Half life in dog at 2.7 mg/kg, po. In kind it is ADME, organism-based, Canis lupus familiaris. On the set-up: dose 2.7 mg/kg, route oral. The note with it: in vivo.
Data set [8] has as its system Macaca fascicularis. The data set can be described thus: Oral bioavailability in monkey at 4.6 mg/kg, po. The conditions noted are these: cynomolgus monkey, in vivo.
For data set [9], the system named is Macaca fascicularis. The data set can be described thus: in vivo. The conditions noted are these: cynomolgus monkey, iv, 0.93 mg/kg.
Data set [10] can be described thus: AUC in monkey at 4.6 mg/kg, po. The conditions noted are these: cynomolgus monkey, plasma.
For data set [11], the system named is Macaca fascicularis. As to the kind of experiment: Volume of distribution at steady state in monkey at 0.93 mg/kg, iv and 4.6 mg/kg, po. The conditions noted are these: cynomolgus monkey, in vivo, read-out: Vdss.
For data set [12], the system named is Macaca fascicularis. The data set can be described thus: Half life in monkey at 4.6 mg/kg, po. The conditions noted are these: cynomolgus monkey, in vivo.

The values that follow come from ChEMBL document CHEMBL1649419, “Design and synthesis of pyrimidinone and pyrimidinedione inhibitors of dipeptidyl peptidase IV” (J Med Chem, 2011).

One may read the AUC as concentration integrated over time. One may read the half-life as the time in which the quantity being followed falls by half.

`Cn1c(=O)cc(N2CCC[C@@H](N)C2)n(Cc2cc(F)ccc2C#N)c1=O.O=C(O)C(F)(F)F`: the Vd in [1] amounted to 4.4 L/kg. Also, the bioavailability in [2] worked out at 90%. The same compound registered an exposure (AUC) in data set [3] of 2200 ng·h/mL. The compound further gave a clearance in data set [4] of 18 mL/min/kg. Moreover, the values for the half-life (with Macaca fascicularis [5]; in data set [6]; in [7]) were 5.6 h, 1.5 h and 4.8 h, respectively.
Consider `Cl.Cn1c(=O)cc(N2CCC[C@@H](N)C2)n(Cc2cc(F)ccc2C#N)c1=O`, for which, in the data set on Macaca fascicularis [8], the bioavailability amounted to 105%. The clearance in the data set on Macaca fascicularis [9] was determined as 10 mL/min/kg. The compound also came in with an AUC in data set [10] of 8000 ng·h/mL. Moreover, the Vd in the data set on Macaca fascicularis [11] was found to be 3.3 L/kg. The compound further gave a half-life in the data set on Macaca fascicularis [12] of 6.2 h.
